Measurements published in US12428458B2, “Therapeutic agent for psoriasis” (StemRIM Inc., priority 2018, dated 2025).

Tests used:
Assay type in all cases: in vivo, C57BL/6 mice
psoriasis model mice [1] = assay: PASI score in imiquimod-induced psoriasis model mice (Example 2); conditions: 5 mg/kg/day i.v. for three days, up to Day 4, vs control group (saline), n=6
Method: (§1) The drugs were prepared and the psoriasis model mice were produced in the same way as Example 1. The peptides were administered in the same way as Example 1 except that the number of mice was changed to six in both the HMGB1 peptide (1-44) administration group and the control group.
The degree of the symptoms of psoriasis on the dorsal skin of the mice was evaluated by the PASI score for four days from the 1st day of the start of imiquimod application. The PASI score was calculated in the same manner as Example 1.

psoriasis model mice [2] = assay: PASI score in imiquimod-induced psoriasis model mice (Example 1)
Text: (§2) In order to induce psoriasis using imiquimod, a cream containing 5% imiquimod (Beselna Cream 5%, manufactured by Mochida Pharmaceutical Co., Ltd.) was used. Imiquimod is represented as IMQ in the drawings corresponding to the Examples of this application. A peptide consisting of amino acid residues 1-44 of the human-derived HMGB1 protein (SEQ ID NO: 1) was chemically synthesized by a solid-phase method. Hereinafter, the HMGB1 fragment peptide is referred to as the HMGB1 peptide (1-44) and is expressed as an abbreviation “1-44” in the drawings corresponding to the Examples.
(§3) C57BL/6 mice (7-week-old, female, body weight about 20 g) were prepared, and the hair on the back was removed. In order to induce psoriasis, the cream containing 5% imiquimod was applied to the dorsal skin of the mice at a dose of 1.25 g/animal/day (62.5 mg/animal/day as imiquimod) once a day for four days. In the following, the day when imiquimod was first applied is represented as “the 1st day of the start of imiquimod application (Day 1)”, and the next day onward is represented as “the Xth day from the start of imiquimod application (Day X)”. That is, the last day that imiquimod was applied was the 4th day from the start of imiquimod application (Day 4), and no application was performed on the 5th day from the start of imiquimod application (Day 5).
The psoriasis model mice produced as described above were divided into the HMGB1 peptide (1-44) administration group (n=3) and the control group (n=3). The test substance was administered by injecting an HMGB1 peptide (1-44) solution, which has been adjusted to a concentration of 1 μg/μl with saline as the vehicle, into the vein at a dose of 100 μl/day (5 mg/kg/day as the peptide dose) for three days from the 1st day of the start of imiquimod application (Day 1). […]
The degree of the symptoms of psoriasis on the dorsal skin of the mice was evaluated by the PASI score for five days from the 1st day of the start of imiquimod application. The PASI score was calculated by quantifying the degree of each of (a) erythema, (b) scaling (desquamation), and (c) thickening (infiltration) of skin using five stages, [no symptoms: 0 points, mild: 1 point, moderate: 2 points, severe: 3 points, and extremely severe: 4 points], and summing up the values of (a), (b), and (c) (minimum 0 points-maximum 12 points).
(a) The erythema score was determined by using the photographs of the back of mice shown in FIG. 1 as a criterion for each score and visually comparing them with the condition of the back of the mice to be evaluated. (b) The scaling score was determined by using the photographs of the back of mice shown in FIG. 2 as a criterion for each score and visually comparing them with the condition of the back of the mice to be evaluated. (c) The thickening score was determined as follows: Two measurement sites were determined on the back of the mice, the skin was pinched and its thickness was measured with a caliper, and the average value from the two sites was recorded daily as the skin thickness (mm). Quantification was carried out by giving 0 points when the value of skin thickness of each day relative to the skin thickness on the 1st day of the start of imiquimod application (before application) was less than 1.1, 1 point when the value was 1.1 or more to less than 1.3, 2 points when the value was 1.3 or more to less than 1.5, 3 points when the value was 1.5 or more to less than 1.7, and 4 points when the value was 1.7 or more.

[3] = tested on: inflammatory cytokines (IL-1β, IL-6, IL-17A, IL-17F, and IL-22); assay: Expression levels of inflammatory cytokines in dorsal skin by quantitative PCR (Example 2); conditions: mRNA, Day 5, 5 mg/kg/day i.v. for three days, vs control group
Method: as §1
On the 5th day from the start of imiquimod application, the dorsal skin of the mice was collected, mRNA was extracted from the skin, and the expression levels of the inflammatory cytokines (IL-1β, IL-6, IL-17A, IL-17F, and IL-22), which are known to be involved in the pathogenesis of psoriasis, were analyzed by quantitative PCR.

[4] = tested on: inflammatory cytokines (IL-6, IL-17F, and IL-22); assay: Expression levels of inflammatory cytokines in dorsal skin by quantitative PCR (Example 1); conditions: mRNA, Day 5, 5 mg/kg/day i.v. for three days, vs control group
Text: as §2, §3
The psoriasis model mice produced as described above were divided into the HMGB1 peptide (1-44) administration group (n=3) and the control group (n=3). […]
On the 5th day from the start of imiquimod application (Day 5), the dorsal skin of the mice was collected, mRNA was extracted from the skin, and the expression levels of the inflammatory cytokines (IL-6, IL-17F, and IL-22), which are known to be involved in the pathogenesis of psoriasis, were analyzed by quantitative PCR.

[5] = 5 mg/kg/day i.v. for three days, up to Day 5, vs control group

“HMGB1 peptide (1-44): peptide consisting of amino acid residues 1-44 of the human-derived HMGB1 protein (SEQ ID NO: 1), chemically synthesized by a solid-phase method (MGKGDPKKPRGKMSSYAFFVQTCREEHKKKHPDASVNFSEFSKK)” was tested. Which PASI score (psoriasis model mice [1]) did it give?
Its PASI score is “lower than that in the control group”.

What about the PASI score (psoriasis model mice [2]; 5 mg/kg/day i.v. for three days from Day 1, up to Day 5, vs control group (saline), n=3) of the same substance?
The PASI score was “lower than those in the control group”.

What about the “PASI score on the 5th day from the start of imiquimod application” value (psoriasis model mice [2]; 5 mg/kg/day i.v. for three days, Day 5, vs control group (saline), p<0.05, 5 mg/kg/day) of the same substance?
Its value is “significantly lower than that in the control group”.

And the erythema score (psoriasis model mice [2]; [5])?
Its erythema score is “lower than those in the control group”.

What about the scaling score (psoriasis model mice [2]; [5]) of the same substance?
Its scaling score is “lower than those in the control group”.

And the thickening score (psoriasis model mice [2]; [5])?
The thickening score was “lower than those in the control group”.

And the “expression level of IL-1β in the skin” value [3]?
The value was “lower than those in the control group”.

And the “expression level of IL-6 in the skin” value [3]?
Its value is “lower than those in the control group”.

What about the “expression level of IL-17A in the skin” value [3] of the same substance?
The value was “lower than those in the control group”.

What about the “expression level of IL-17F in the skin” value [3] of the same substance?
The value was “lower than those in the control group”.

What about the “expression level of IL-22 in the skin” value [3] of the same substance?
Its value is “lower than those in the control group”.

What about the “expression level of IL-6 in the skin” value [4] of the same substance?
The value was “lower than those in the control group”.

And the “expression level of IL-17F in the skin” value [4]?
Its value is “lower than those in the control group”.

What about the “expression level of IL-22 in the skin” value [4] of the same substance?
The value was “lower than those in the control group”.
